The values below come from ChEMBL document CHEMBL3352484, “Modified 2,4-diaminopyrimidine-based dihydrofolate reductase inhibitors as potential drug scaffolds against Bacillus anthracis” (Bioorg Med Chem, 2015).

≈ marks a conversion by molar mass, not a printed value.

The assay concerns Bacillus anthracis. The assay can be described thus: Antimicrobial activity against Bacillus anthracis assessed as growth inhibition measured as turbidity. The format is functional.
Take `CCOc1c(/C=C/C(=O)N2N=Cc3ccccc3C2C=C(C)C)cc(Cc2cnc(N)nc2N)cc1OC` (racemic): the MIC came to 0.5 µg/mL (≈ 0.975 µM).
Then `CCCC1c2ccccc2C=NN1C(=O)/C=C/c1cc(Cc2cnc(N)nc2N)cc(OC(=O)c2ccc(OC(F)(F)F)cc2)c1OC` (racemic), with 8 µg/mL (≈ 12.1 µM).
As to `CCCC1c2ccccc2C=NN1C(=O)/C=C/c1cc(C(=O)c2cnc(N)nc2N)cc(OC)c1OC` (racemic), the MIC is greater than 128 µg/mL.
For the compound `CCCC1c2ccccc2C=NN1C(=O)/C=C/c1cc(Cc2cnc(N)nc2N)cc(OCc2ccc(F)cc2)c1OC` (racemic), the MIC was 8 µg/mL (≈ 13.8 µM).
Take `COc1cc(Cc2cnc(N)nc2N)cc(OC)c1OC` [TRIMETHOPRIM]: the MIC is greater than 2050 µg/mL.
Take `CCCC1c2ccccc2C=NN1C(=O)/C=C/c1cc(Cc2cnc(N)nc2N)cc(OC)c1OCc1ccccc1` (racemic): the MIC amounted to 4 µg/mL (≈ 7.11 µM).
For `CCCOc1cc(Cc2cnc(N)nc2N)cc(/C=C/C(=O)N2N=Cc3ccccc3C2CCC)c1OC` (racemic), the MIC was found to be 4 µg/mL (≈ 7.77 µM).
Consider `CCCC1c2ccccc2C=NN1C(=O)/C=C/c1cc(Cc2cnc(N)nc2N)cc(OCC)c1OCC` (racemic), for which the MIC turned out to be 4 µg/mL (≈ 7.77 µM).
Turning to `COc1cc(C(=O)c2cnc(N)nc2N)cc(/C=C/C(=O)N2N=Cc3ccccc3C2C=C(C)C)c1OC` (racemic), the minimum inhibitory concentration (MIC) is greater than 128 µg/mL.
`CCCC1c2ccccc2C=NN1C(=O)/C=C/c1cc(Cc2cnc(N)nc2N)cc2c1OCO2` (racemic): the minimal inhibitory concentration (MIC) was determined as 32 µg/mL (≈ 68 µM).
Then `CCCC1c2ccccc2C=NN1C(=O)/C=C/c1cc(Cc2cnc(N)nc2N)cc(OCc2ccc(C(F)(F)F)cc2)c1OC` (racemic), with 8 µg/mL (≈ 12.7 µM); and `CCCC1c2ccccc2C=NN1C(=O)/C=C/c1cc(Cc2cnc(N)nc2N)cc(OC(=O)c2ccccc2)c1OC` (racemic), with 4 µg/mL (≈ 6.94 µM).
Consider `CCOc1cc(Cc2cnc(N)nc2N)cc(/C=C/C(=O)N2N=Cc3ccccc3C2C=C(C)C)c1OCC` (racemic), for which the MIC came to 1 µg/mL (≈ 1.9 µM).
Then `CCCC1c2ccccc2C=NN1C(=O)/C=C/c1cc(Cc2cnc(N)nc2N)cc(OC)c1OCC` (racemic), with 2 µg/mL (≈ 4 µM); and `CCCC1c2ccccc2C=NN1C(=O)/C=C/c1cc(Cc2cnc(N)nc2N)cc(OC(=O)c2ccc(OC)cc2)c1OC` (racemic), with 8 µg/mL (≈ 13.2 µM); and `CCCC1c2ccccc2C=NN1C(=O)/C=C/c1cc(Cc2cnc(N)nc2N)cc(OC(=O)c2ccc([N+](=O)[O-])cc2)c1OC` (racemic), with 8 µg/mL (≈ 12.9 µM).

The MIC is the lowest concentration that inhibits growth of the organism.
